Some test systems named below: HL-60(TB) leukemia; U251 CNS; TK-10 renal; LOX IMVI melanoma; SN12C renal; K-562 leukemia; SF-295 CNS; CCRF-CEM leukemia; MALME-3M melanoma; DU-145 prostate; CAKI-1 renal.
Common to all, as to assay: inhibition of tumour cell growth, NCI panel, 48 h

Several values for one entry are separate records, joined by “and”; a condition that tells them apart may be missing. Equal values may be shown once.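 Dose response: 5 concentrations. Exposure: 48 h. Format: 96-well plates. Endpoint: linear interpolation; highest concentration if not reached. GI50 = concentration required for 50% inhibition of growth. Definition used: TGI = concentration required for complete inhibition of growth.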

On to `COC(=O)c1ccccc1C1CN=NC12Cc1c(C)ccc(C)c1C2=O` (stereo unspecified), for which the TGI with HL-60(TB) leukemia, in the assay on U251 CNS, in the assay on TK-10 renal, in the assay on LOX IMVI melanoma, with SN12C renal and with K-562 leukemia was greater than 100 µM each time. Further, the TGI with SF-295 CNS, with CCRF-CEM leukemia, in the assay with MALME-3M melanoma, in the assay on DU-145 prostate and with CAKI-1 renal was greater than 100 µM each time.
For `Clc1ccc(C2=NCON=C2c2ccc(Cl)cc2)cc1`, the TGI in the assay on HL-60(TB) leukemia is 30.9 µM; in the assay with U251 CNS, 40.1 µM; in the assay on TK-10 renal, 66.3 µM; with LOX IMVI melanoma, 28.3 µM; in the assay with SN12C renal, 35.2 µM; in the assay on K-562 leukemia it was 55 µM. Moreover, the TGI with SF-295 CNS is 49.4 µM; in the assay on CCRF-CEM leukemia, 53.1 µM; with MALME-3M melanoma, 27.7 µM; in the assay on DU-145 prostate, greater than 100 µM; in the assay with CAKI-1 renal it was 97.8 µM.
Consider `Cc1ccc(-n2cc(-c3ccc(Cl)cc3)c3c(=N)n(N)cnc32)cc1`, for which the TGI came to 31.7 µM in the assay with HL-60(TB) leukemia; 22.3 µM in the assay with U251 CNS; 28.7 µM with TK-10 renal; 29.8 µM in the assay with LOX IMVI melanoma; 29.9 µM in the assay on SN12C renal; 47.6 µM with K-562 leukemia. The TGI in the assay on SF-295 CNS is 28.8 µM; with CCRF-CEM leukemia it was 51.4 µM; in the assay on MALME-3M melanoma it was 26.1 µM; in the assay with DU-145 prostate, 34.5 µM; in the assay on CAKI-1 renal, 34.3 µM.
With `CC(C)=CCCC1(C)C2COC(=O)C21` (stereo unspecified), the GI50 was 43.3 µM and 18.8 µM in the assay with HL-60(TB) leukemia; > 100 µM and 43.5 µM in the assay on U251 CNS; 38.8 µM and 19 µM in the assay with LOX IMVI melanoma; 52.8 µM and 19.3 µM in the assay on SN12C renal; 39.3 µM and 12.3 µM with CCRF-CEM leukemia; > 100 µM and 16 µM in the assay on CAKI-1 renal. For the same molecule, the TGI is > 100 µM and 40.9 µM with HL-60(TB) leukemia; greater than 100 µM in the assay with U251 CNS; greater than 100 µM in the assay with TK-10 renal; > 100 µM and 34.7 µM with LOX IMVI melanoma; > 100 µM and 39.9 µM in the assay on SN12C renal; > 100 µM and 27.4 µM in the assay with K-562 leukemia. Besides, the TGI was greater than 100 µM in the assay on SF-295 CNS; > 100 µM and 52.6 µM in the assay on CCRF-CEM leukemia; greater than 100 µM in the assay with MALME-3M melanoma; greater than 100 µM in the assay with DU-145 prostate; > 100 µM and 30.7 µM with CAKI-1 renal.
`COc1cc2c(cc1OC)C(=O)N(c1ccc(OCCN3CCCC3)cc1)C2=O`: the TGI in the assay with HL-60(TB) leukemia, with U251 CNS, in the assay with TK-10 renal, in the assay with LOX IMVI melanoma, with SN12C renal and in the assay on K-562 leukemia was greater than 100 µM each time. The TGI with SF-295 CNS, in the assay on CCRF-CEM leukemia, in the assay with MALME-3M melanoma, in the assay with DU-145 prostate and in the assay on CAKI-1 renal was greater than 100 µM in each case.
On to `Oc1ccc(SCc2cc(O)ccc2O)cc1`, for which the TGI is greater than 100 µM with HL-60(TB) leukemia; 28.4 µM with U251 CNS; 33.9 µM in the assay on TK-10 renal; greater than 53.1 µM in the assay with LOX IMVI melanoma; 28.1 µM with SN12C renal; greater than 100 µM in the assay with K-562 leukemia. Moreover, the TGI with SF-295 CNS was 39 µM; in the assay on CCRF-CEM leukemia, greater than 100 µM; in the assay on MALME-3M melanoma, 36.2 µM; with DU-145 prostate, greater than 100 µM; in the assay on CAKI-1 renal it was 19.7 µM.
Turning to `Cc1ccc2nc(C(=O)O)c(=O)[nH]c2c1`, the TGI in the assay on HL-60(TB) leukemia, with U251 CNS, with TK-10 renal, with LOX IMVI melanoma, in the assay with SN12C renal and with K-562 leukemia was greater than 100 µM each time. Further, the TGI in the assay with SF-295 CNS, in the assay with CCRF-CEM leukemia, in the assay with MALME-3M melanoma, with DU-145 prostate and in the assay with CAKI-1 renal was greater than 100 µM throughout.
With `COc1cc2c(cc1OC)C(=O)/C(=C/c1ccc(N(C)C)cc1)CC2`, the TGI with HL-60(TB) leukemia, with U251 CNS, with TK-10 renal, in the assay with LOX IMVI melanoma, with SN12C renal and with K-562 leukemia was greater than 10 µM throughout. Further, the TGI with SF-295 CNS, in the assay with CCRF-CEM leukemia, in the assay on MALME-3M melanoma, in the assay on DU-145 prostate and in the assay with CAKI-1 renal was greater than 10 µM in each case.
For the molecule `CCC1CN2CCc3c([nH]c4ccccc34)[C@@](C(=O)OC)(c3cc4c(cc3OC)N(C)C3C(O)(C(=O)OC)C(C(=O)OC)C5(CC)C=CCN6CCC43C65)C[C@@H](C2)[C@@H]1C(C)(C)C` (stereo partly specified), the TGI was 1.23 µM with HL-60(TB) leukemia; greater than 3.52 µM in the assay with U251 CNS; greater than 10 µM with TK-10 renal; 2 µM in the assay with LOX IMVI melanoma; 9.93 µM in the assay with SN12C renal; 9.73 µM in the assay on K-562 leukemia. Further, the TGI in the assay on SF-295 CNS is 0.555 µM; in the assay on CCRF-CEM leukemia, greater than 5.53 µM; in the assay on MALME-3M melanoma it was 2.95 µM; in the assay with DU-145 prostate, 9.32 µM; in the assay with CAKI-1 renal it was greater than 10 µM.
`Cc1cc2occ(S(=O)(=O)NC(=O)Nc3ccc(Cl)cc3)c(=O)c2c(=O)o1`: the TGI with HL-60(TB) leukemia, in the assay with U251 CNS, with TK-10 renal, in the assay on LOX IMVI melanoma, with SN12C renal and with K-562 leukemia was greater than 100 µM each time. Besides, the TGI with SF-295 CNS, with CCRF-CEM leukemia, in the assay on MALME-3M melanoma, in the assay on DU-145 prostate and in the assay with CAKI-1 renal was greater than 100 µM in each case.

The values are drawn from PubChem BioAssay (NCI).
